From patent US5294605A, “Amphiphilic peptide compositions and analogues thereof” (The Scripps Research Institute, priority 1991, dated 1994)
Read-outs that look alike come from different tables or passages of the source. Square brackets hold non-standard residues; d marks the D form. Ends that are not written are not given here. Met(O) = CS(=O)CC[C@H](N)C(=O)O

Experiments:
Format in all cases: cell-based
Escherichia coli [1] = details: for Min. Inhibitory Concentration E. Coli: LB medium
Protocol: (§1) For the following Examples 3-9, antimicrobial assays were carried out in 96-well tissue culture plates. Each well was incubated with a given microorganism (Escherichia coli, Staphylococcus epidermidis, or Pseudomonas aeruginosa) suspended in LB medium. Upon the addition of the parent peptide having the structural formula hereinabove described, or its substitution analogues, or of Peptide I (dissolved in 1 X PBS, pH 7.0) each well contained a final cell density of 1.0×10^6 colony forming units (CFU)/ml. The final peptide concentrations ranged from 1.5 μg/ml to greater than 100 μg/ml.
(§2) Addition of peptides to the wells was defined as time zero. At twenty hours, the plates were placed in a Titertek Multiskan apparatus and the O.D.620 determined. The plates as well as the initial innoculum were incubated at 37° C.
(§3) Five wells per plate contained media alone, while five others contained medium plus cells. These controls were used to eliminate the possibility of media contamination while providing a measure of uninhibited growth of the microorganisms.
(§4) The degree of peptide activity was determined by comparing the substitution analogues with uninhibited growth of the control cells over a twenty-hour period.
(§5) as hereinabove described and analogues thereof wherein a methionine sulfoxide residue was substituted for various amino acid residues of the parent peptide were prepared as hereinabove described in Example 1 and tested for minimum inhibitory concentration with respect to E. coli, P. aeruginosa, and S. epidermidis at a concentration given in μg/ml, and for percent hemolysis of human red blood cells as hereinabove described in Example 2. The minimum inhibitory concentration and percent hemolysis (at a concentration of 100 μg/ml) are listed below in Table I. As used herein, the heading "Amino Acid Residue Substituted" refers to the number of the amino acid residue in the peptide which is substituted with a desired amino acid residue. All other residues remain the same as that of the normal peptide sequence. The term "Minimum Inhibitory Concentration" (MIC) as used herein indicates the minimum concentration of peptide in μg/ml needed to achieve 100 percent effective growth inhibition of the organism.

Pseudomonas aeruginosa [2] = details: for Min. Inhibitory Concentration P. Aeruginosa: LB medium
Protocol: as §1, §2, §3, §4, §5

[3] = system: Staphylococcus epidermidis; experiment: Antimicrobial assay in 96-well plates, LB medium (Example 2), MIC; details: for Min. Inhibitory Concentration S. epidemidia: Table VI, methionine sulfoxide diastereomer fractions
Escherichia coli [4] = experiment: Antimicrobial assay for deletion analogues (Example 10), MIC; details: Table VII; 1.3×10^5 CFU/ml, 20 hours, LB medium
Protocol: (§6) For the deletion analogues of the parent peptide further described in Examples 11 and 12, antimicrobial assays were carried out in 96-well tissue culture plates. Each well was incubated with a given microorganism (Escherichia coli, Staphylococcus epidermidis, Pseudomonas aeruginosa, or Staphylococcus aureus) suspended in LB medium. Upon addition of the parent peptide or its deletion analogues (dissolved in 1×PBS<pH7.0), each well contained a final cell density of 1.3×10^5 colony forming units (CFU)/ml of E. coli, or 3.5×10^5 CFU/ml P.aeruginosa, or 3.9×10^5 CFU/ml S. Aureus or 3.0×10^5 CFU/ml S. epidermidis. The final peptide concentrations ranged from 1.5 μg/ml to greater than 100 μg/ml. Addition of peptide to the wells was defined as time zero. At twenty hours, the plates were placed in a Titertek Multiskan apparatus and the O.D. 620 determined. The plates as well as the initial innoculum were incubated at 37° C. Five wells per plate contained medium alone, whereas five others contained medium plus cells. These controls were used to eliminate the possibility of medium contamination, while providing a measure of uninhibited growth of the microorganisms. The degree of peptide activity was determined by comparing the deletion analogues with uninhibited growth of the control cells over a twenty-hour period. The effective growth inhibitation of the deletion analogues is listed in the examples and tables below.

Pseudomonas aeruginosa [5] = experiment: as above; details: Table VII; 3.5×10^5 CFU/ml, 20 hours, LB medium
Protocol: as §6

Staphylococcus aureus = experiment: as above; details: Table VII; 3.9×10^5 CFU/ml, 20 hours, LB medium
Protocol: as §6

[6] = system: Staphylococcus epidermidis; experiment: as above; details: Table VII; 3.0×10^5 CFU/ml, 20 hours, LB medium
Protocol: as §6

[7] = Table VI, methionine sulfoxide diastereomer fractions, 20 hours
[8] = Table II, lysine substitutions, 20 hours
[9] = Table IV, analogues substituted at residues 4 and 11, 20 hours

4 (SEQ ID NO: 8) 50/50: residue 4 methionine sulfoxide analogue, fraction by proportion of L-methionine-L-/D-sulfoxide (assignment undetermined) (LKL[Met(O)]KKLLKKLKKLLKKL; also: sulfoxide L-/D- 50/50 mixture, assignment undetermined)
Min. Inhibitory Concentration E. Coli (Escherichia coli [1]; [7]): 10 µg/mL | Min. Inhibitory Concentration P. Aeruginosa (Pseudomonas aeruginosa [2]; [7]): 5 µg/mL | Min. Inhibitory Concentration S. epidemidia ([3]; 20 hours): 5 µg/mL

Ac-LLLKKLLKKLKKLLKKL-NH2 [2 (X(SEQ ID NO: 47) --NH2)]
Minimum Inhibitory Concentration E. coli (Escherichia coli [4]): 8 to 16 µg/mL | Minimum Inhibitory Concentration P. Aeruginosa (Pseudomonas aeruginosa [5]): 16 to 32 µg/mL | Minimum Inhibitory Concentration S. aureus (Staphylococcus aureus): 32 to 64 µg/mL | Minimum Inhibitory Concentration S. epidermidis [6]: 4 µg/mL

Ac-KKLLKKLLKKLKKLLKKL-NH2 [1 (SEQ ID NO: 23)]
Min. Inhibitory Concentration E. Coli (Escherichia coli [1]; [8]): 5 µg/mL | Min. Inhibitory Concentration P. Aeruginosa (Pseudomonas aeruginosa [2]; [8]): 30 µg/mL | Min. Inhibitory Concentration S. epidermidis [3, 8]: 25 µg/mL

Ac-LKLKKKLLKKLKKLLKKL-NH2 [4 (SEQ ID NO: 25)]
Min. Inhibitory Concentration E. Coli (Escherichia coli [1]; [8]): 2.5 µg/mL | Min. Inhibitory Concentration P. Aeruginosa (Pseudomonas aeruginosa [2]; [8]): 30 µg/mL | Min. Inhibitory Concentration S. epidermidis [3, 8]: 5 µg/mL

Ac-LKLLKKLLKKLKKLLKK-NH2 [18 (X(SEQ ID NO: 56) --NH2)]
Minimum Inhibitory Concentration E. coli (Escherichia coli [4]): 16 µg/mL | Minimum Inhibitory Concentration P. Aeruginosa (Pseudomonas aeruginosa [5]): 8 µg/mL | Minimum Inhibitory Concentration S. aureus (Staphylococcus aureus): 32 µg/mL | Minimum Inhibitory Concentration S. epidermidis [6]: 2 µg/mL

11 (SEQ ID NO: 15) 70/30: residue 11 methionine sulfoxide analogue, fraction by proportion of L-methionine-L-/D-sulfoxide (assignment undetermined) (LKLLKKLLKK[Met(O)]KKLLKKL; also: sulfoxide L-/D- 70/30 mixture, assignment undetermined)
Min. Inhibitory Concentration E. Coli (Escherichia coli [1]; [7]): 10 µg/mL | Min. Inhibitory Concentration P. Aeruginosa (Pseudomonas aeruginosa [2]; [7]): 2.5 µg/mL | Min. Inhibitory Concentration S. epidemidia ([3]; 20 hours): 2 µg/mL

4 (SEQ ID NO: 8) 60/40: residue 4 methionine sulfoxide analogue, fraction by proportion of L-methionine-L-/D-sulfoxide (assignment undetermined) (LKL[Met(O)]KKLLKKLKKLLKKL; also: sulfoxide L-/D- 60/40 mixture, assignment undetermined)
Min. Inhibitory Concentration E. Coli (Escherichia coli [1]; [7]): > 10 µg/mL | Min. Inhibitory Concentration P. Aeruginosa (Pseudomonas aeruginosa [2]; [7]): 5 µg/mL | Min. Inhibitory Concentration S. epidemidia ([3]; 20 hours): 5 µg/mL

Ac-LKLLKKLLKKLKKLKKL-NH2 [14 (X(SEQ ID NO: 54) --NH2)]
Minimum Inhibitory Concentration E. coli (Escherichia coli [4]): 8 µg/mL | Minimum Inhibitory Concentration P. Aeruginosa (Pseudomonas aeruginosa [5]): 8 µg/mL | Minimum Inhibitory Concentration S. aureus (Staphylococcus aureus): 32 µg/mL | Minimum Inhibitory Concentration S. epidermidis [6]: 2 µg/mL

7 (SEQ ID NO: 11) 20/80: residue 7 methionine sulfoxide analogue, fraction by proportion of L-methionine-L-/D-sulfoxide (assignment undetermined) (LKLLKK[Met(O)]LKKLKKLLKKL; also: sulfoxide L-/D- 20/80 mixture, assignment undetermined)
Min. Inhibitory Concentration E. Coli (Escherichia coli [1]; [7]): 5 µg/mL | Min. Inhibitory Concentration P. Aeruginosa (Pseudomonas aeruginosa [2]; [7]): > 5 µg/mL | Min. Inhibitory Concentration S. epidemidia ([3]; 20 hours): > 10 µg/mL

Ac-LKLLKKLLKKKKLLKKL-NH2 [11 (X(SEQ ID NO: 52) --NH2)]
Minimum Inhibitory Concentration E. coli (Escherichia coli [4]): 64 µg/mL | Minimum Inhibitory Concentration P. Aeruginosa (Pseudomonas aeruginosa [5]): 8 µg/mL | Minimum Inhibitory Concentration S. aureus (Staphylococcus aureus): 256 µg/mL | Minimum Inhibitory Concentration S. epidermidis [6]: 2 µg/mL

Ac-LKLKKKLLKKMKKLLKKL-NH2 [Analogue 8]
Min. Inhibitory Concentration E. Coli (Escherichia coli [1]; [9]): 5 µg/mL | Min. Inhibitory Concentration P. Aeruginosa (Pseudomonas aeruginosa [2]; [9]): 5 µg/mL | Min. Inhibitory Concentration S. epidermidis [3, 9]: 5 µg/mL

Ac-LKKLKKLLKKLKKLLKKL-NH2 [3 (SEQ ID NO: 24)]
Min. Inhibitory Concentration E. Coli (Escherichia coli [1]; [8]): 5 µg/mL | Min. Inhibitory Concentration P. Aeruginosa (Pseudomonas aeruginosa [2]; [8]): 30 µg/mL | Min. Inhibitory Concentration S. epidermidis [3, 8]: 10 µg/mL

Ac-LKLKKLLKKLKKLLKKL-NH2 [3 (X(SEQ ID NO: 48) --NH2)]
Minimum Inhibitory Concentration E. coli (Escherichia coli [4]): 4 µg/mL | Minimum Inhibitory Concentration P. Aeruginosa (Pseudomonas aeruginosa [5]): 8 µg/mL | Minimum Inhibitory Concentration S. aureus (Staphylococcus aureus): 32 to 64 µg/mL | Minimum Inhibitory Concentration S. epidermidis [6]: 4 µg/mL

Ac-LKLLKKLLKLKKLLKKL-NH2 [9 (X(SEQ ID NO: 51) --NH2)]
Minimum Inhibitory Concentration E. coli (Escherichia coli [4]): 8 µg/mL | Minimum Inhibitory Concentration P. Aeruginosa (Pseudomonas aeruginosa [5]): 16 µg/mL | Minimum Inhibitory Concentration S. aureus (Staphylococcus aureus): 64 µg/mL | Minimum Inhibitory Concentration S. epidermidis [6]: 4 µg/mL

Ac-KLLKKLLKKLKKLLKKL-NH2 [1 (X(SEQ ID NO: 46) --NH2)]
Minimum Inhibitory Concentration E. coli (Escherichia coli [4]): 16 µg/mL | Minimum Inhibitory Concentration P. Aeruginosa (Pseudomonas aeruginosa [5]): 16 to 32 µg/mL | Minimum Inhibitory Concentration S. aureus (Staphylococcus aureus): 32 µg/mL | Minimum Inhibitory Concentration S. epidermidis [6]: 4 µg/mL

Ac-LKLLKLLKKLKKLLKKL-NH2 [5 (X(SEQ ID NO: 49) --NH2)]
Minimum Inhibitory Concentration E. coli (Escherichia coli [4]): 8 µg/mL | Minimum Inhibitory Concentration P. Aeruginosa (Pseudomonas aeruginosa [5]): 32 µg/mL | Minimum Inhibitory Concentration S. aureus (Staphylococcus aureus): 64 to 128 µg/mL | Minimum Inhibitory Concentration S. epidermidis [6]: 2 µg/mL

Ac-LLKLLKKLLKKLKK [Peptide I]
Minimum Inhibitory Concentration against E.coli (Escherichia coli [1]; 20 h): 10 µg/mL | Minimum Inhibitory Concentration against P.aeruginosa (Pseudomonas aeruginosa [2]; 20 h): 5 µg/mL

7 (SEQ ID NO: 11) 70/30: residue 7 methionine sulfoxide analogue, fraction by proportion of L-methionine-L-/D-sulfoxide (assignment undetermined) (LKLLKK[Met(O)]LKKLKKLLKKL; also: sulfoxide L-/D- 70/30 mixture, assignment undetermined)
Min. Inhibitory Concentration E. Coli (Escherichia coli [1]; [7]): 10 µg/mL | Min. Inhibitory Concentration P. Aeruginosa (Pseudomonas aeruginosa [2]; [7]): > 5 µg/mL | Min. Inhibitory Concentration S. epidemidia ([3]; 20 hours): > 10 µg/mL

Ac-LKLLKKLLKKLKLLKKL-NH2 [12 (X(SEQ ID NO: 53) --NH2)]
Minimum Inhibitory Concentration E. coli (Escherichia coli [4]): 8 µg/mL | Minimum Inhibitory Concentration P. Aeruginosa (Pseudomonas aeruginosa [5]): 8 µg/mL | Minimum Inhibitory Concentration S. aureus (Staphylococcus aureus): 32 µg/mL | Minimum Inhibitory Concentration S. epidermidis [6]: 4 µg/mL

Ac-LKLLKKLKKLKKLLKKL-NH2 [7 (X(SEQ ID NO: 50) --NH2)]
Minimum Inhibitory Concentration E. coli (Escherichia coli [4]): 4 µg/mL | Minimum Inhibitory Concentration P. Aeruginosa (Pseudomonas aeruginosa [5]): 4 to 8 µg/mL | Minimum Inhibitory Concentration S. aureus (Staphylococcus aureus): 64 µg/mL | Minimum Inhibitory Concentration S. epidermidis [6]: 2 µg/mL

11 (SEQ ID NO: 15) 20/80: residue 11 methionine sulfoxide analogue, fraction by proportion of L-methionine-L-/D-sulfoxide (assignment undetermined) (LKLLKKLLKK[Met(O)]KKLLKKL; also: sulfoxide L-/D- 20/80 mixture, assignment undetermined)
Min. Inhibitory Concentration E. Coli (Escherichia coli [1]; [7]): 10 µg/mL | Min. Inhibitory Concentration P. Aeruginosa (Pseudomonas aeruginosa [2]; [7]): 5 µg/mL | Min. Inhibitory Concentration S. epidemidia ([3]; 20 hours): 2.5 µg/mL

Ac-LKLLKKLLKKLKKLLKL-NH2 [16 (X(SEQ ID NO: 55) --NH2)]
Minimum Inhibitory Concentration E. coli (Escherichia coli [4]): 8 µg/mL | Minimum Inhibitory Concentration P. Aeruginosa (Pseudomonas aeruginosa [5]): 16 µg/mL | Minimum Inhibitory Concentration S. aureus (Staphylococcus aureus): 32 µg/mL | Minimum Inhibitory Concentration S. epidermidis [6]: 4 µg/mL
